Columns and labels:
[1] = system: intracellular L. donovani; test: L. donovani-infected macrophage assay; assay type: cell-based, Leishmania donovani; conditions: Leishmania donovani, Macrophage; for IC50: read-out: IC50 against L. donovani; for inhibition at 50 µM: read-out: Inhibition of parasitemia at 50 μM, 50 μM
[2] = molecular target: recombinant L. donovani CYP51 (Leishmania donovani, UniProt A0A3S7WRS7); test: Fluorescence-based L. donovani CYP51 inhibition assay; assay type: biochemical
HepG2 cells = test: HepG2 toxicity assay; assay type: cell-based; conditions: Homo sapiens, HepG2, 72 h, read-out: IC50 against HepG2
J774 macrophages = test: J774 macrophage toxicity assay; assay type: cell-based, mouse; conditions: Mus musculus, J774, read-out: IC50 against J774 macrophages
[3] = intracellular L. donovani, mean ± S.E.M., n=3

SMILES	IC50 [1]	Inhibition of L. donovani CYP51 (in words) ([2]; at concentrations 5–10 times greater than their IC50 against intracellular L. donovani, M.Z. Wang, unpublished observations)	IC50 [2]	IC50 (HepG2 cells)	IC50 (J774 macrophages)	inhibition at 50 µM [1, 3]	inhibition at 7.5 µM ([1]; read-out: Inhibition of parasitemia at 7.5 μM, 7.5 μM, intracellular L. donovani, mean ± S.E.M., n=3)
C[C@@H]1[C@H](O)[C@@H](C)/C=C/C=C/C=C/C=C/C=C/C=C/C=C/[C@H](O[C@@H]2O[C@H](C)[C@@H](O)[C@H](N)[C@@H]2O)C[C@@H]2O[C@](O)(C[C@@H](O)C[C@@H](O)[C@H](O)CC[C@@H](O)C[C@@H](O)CC(=O)O[C@H]1C)C[C@H](O)[C@H]2C(=O)O [Amphotericin B, reference compound]	0.045 ± 0.003 µM	–	–	–	–	–	–
CC(C)Oc1cc(NC(=N)c2ccccn2)ccc1-c1ccc(-c2ccc(NC(=N)c3ccccn3)cc2OC(C)C)o1 [Compound 1, reference compound]	–	weak inhibitors	–	–	–	–	–
N=C(Nc1ccc(OCCn2ccnc2)cc1)c1ccccn1 [Compound 9a, N-(4-(2-(1H-imidazol-1-yl)ethoxy)phenyl) picolinimidamide]	> 50 µM	–	21 ± 1 µM	> 50 µM	> 50 µM	–	–
N=C(Nc1ccc(OCCn2cncn2)cc1)c1ccccn1 [Compound 9b, N-(4-(2-(1H-1,2,4-triazol-1-yl)ethoxy)phenyl) picolinimidamide]	> 100 µM	–	35 ± 2 µM	> 100 µM	> 50 µM	–	–
N=C(Nc1ccc(OCCCn2ccnc2)cc1)c1ccccn1 [Compound 9c, N-(4-(3-(1H-imidazol-1-yl)propoxy)phenyl) picolinimidamide]	> 25 µM	–	22 µM	> 50 µM	> 50 µM	–	–
N=C(Nc1ccc(OCCCCn2ccnc2)cc1)c1ccccn1 [Compound 9d, N-(4-(4-(1H-imidazol-1-yl)butoxy)phenyl) picolinimidamide]	18 ± 3 µM	–	6.4 ± 0.1 µM	> 20 µM	> 50 µM	–	–
N=C(Nc1ccc(OCCCCn2cncn2)cc1)c1ccccn1 [Compound 9e, N-(4-(4-(1H-1,2,4-triazol-1-yl)butoxy)phenyl) picolinimidamide]	> 100 µM	–	89 ± 4 µM	> 100 µM	> 50 µM	–	–
N=C(Nc1ccc(OCCCCCn2ccnc2)cc1)c1ccccn1 [Compound 9f, N-(4-((5-(1H-imidazol-1-yl)pentyl)oxy)phenyl) picolinimidamide]	13 ± 5 µM	–	4.8 ± 0.1 µM	42 ± 4 µM	> 50 µM	–	–
N=C(Nc1ccc(OCCCCCCn2ccnc2)cc1)c1ccccn1 [Compound 9g, N-(4-((6-(1H-imidazol-1-yl)hexyl)oxy)phenyl) picolinimidamide]	8.8 ± 0.6 µM	–	1.3 ± 0.1 µM	20 ± 3 µM	> 40 µM	–	–
N=C(NCCCCCCCCn1ccnc1)c1ccccn1 [Compound 28, N-(8-(1H-imidazol-1-yl)octyl)picolinimidamide]	> 100 µM	–	–	> 100 µM	–	–	–
COc1cccc2c1C(=O)c1c(O)c3c(c(O)c1C2=O)C[C@@](O)(C(=O)CO)C[C@@H]3O[C@H]1C[C@H](N)[C@H](O)[C@H](C)O1 [Doxorubicin, reference compound]	–	–	–	0.2 ± 0.02 µM	–	–	–
OC(Cn1cncn1)(Cn1cncn1)c1ccc(F)cc1F [Fluconazole, fluconazole, reference compound]	–	–	0.96 ± 0.03 µM	–	–	16 ± 3%	–
CC(=O)N1CCN(c2ccc(OCC3COC(Cn4ccnc4)(c4ccc(Cl)cc4Cl)O3)cc2)CC1 (centres unmarked) [Ketoconazole, ketoconazole, reference compound]	–	–	0.048 ± 0.004 µM	–	–	50 ± 7%	–
COc1cc([C@@H]2c3cc4c(cc3[C@H](O)[C@H]3COC(=O)[C@H]23)OCO4)cc(OC)c1OC [Podophyllotoxin, reference compound]	–	–	–	–	0.025 ± 0.001 µM	–	–
CC[C@@H]([C@H](C)O)n1ncn(-c2ccc(N3CCN(c4ccc(OC[C@@H]5CO[C@@](Cn6cncn6)(c6ccc(F)cc6F)C5)cc4)CC3)cc2)c1=O [Posaconazole, posaconazole, reference compound]	–	–	0.059 ± 0.001 µM	–	–	–	47 ± 2%
CCN(CC)CCCC(C)Nc1c2ccc(Cl)cc2nc2ccc(OC)cc12 (centres unmarked) [Quinacrine, reference compound]	–	–	–	5.5 ± 0.7 µM	–	–	–
